Measured values taken from patent US20150239889A1, “PYRAZOLOPYRIMIDINE COMPOUND” (MITSUBISHI TANABE PHARMA CORPORATION, priority 2012, published 2015).

What was measured:
[1] = target: T1, human HIF-PHD2 (Homo sapiens, UniProt Q9GZT9); experiment: HIF-PHD inhibition assay (fluorescence polarization), human HIF-PHD2; format: biochemical; conditions: 2-oxoglutaric acid 3.33 μmol/L
T1 construct: purchased CrystalGenomics Ltd
Outline: (§1)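 Activity was derived as the fluorescence polarization (mP) after enzyme addition minus that measured before enzyme addition. Probe bore a 5′-fluoresceinamide (FAM) label with an aminocaproic acid (ACA) linker.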

[2] = target: T2, human HIF-PHD3 (Homo sapiens, UniProt Q9H6Z9); experiment: HIF-PHD inhibition assay (fluorescence polarization), human HIF-PHD3; format: biochemical; conditions: 2-oxoglutaric acid 166 μmol/L
T2 construct: purchased CrystalGenomics Ltd
Outline: as §1

[3] = system: Hep3B cells; experiment: EPO production assay (ELISA of culture supernatant); format: cell-based; conditions: Homo sapiens, 3 μmol/L test compound, 48 hours, relative to control (0.1% DMSO), read-out: EPO production stimulation rate with 3 μmol/L test compound
Outline: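 Hep3B cells (40000/well) switched to MEM with 0.5% FBS and treated with compound (0.1% DMSO) for 48 h at 37 °C. Supernatant EPO measured by ELISA; value is fold stimulation at 3 μmol/L compound over unstimulated control.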

T2 sequence (Q9H6Z9 whole entry): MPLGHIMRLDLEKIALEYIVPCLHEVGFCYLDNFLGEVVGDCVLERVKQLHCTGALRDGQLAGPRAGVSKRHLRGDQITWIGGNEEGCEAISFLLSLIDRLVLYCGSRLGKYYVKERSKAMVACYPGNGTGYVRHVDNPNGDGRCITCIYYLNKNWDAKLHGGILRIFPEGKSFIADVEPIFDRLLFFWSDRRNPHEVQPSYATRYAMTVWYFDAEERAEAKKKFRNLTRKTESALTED
T1 sequence (Q9GZT9 2-426 limits assumed): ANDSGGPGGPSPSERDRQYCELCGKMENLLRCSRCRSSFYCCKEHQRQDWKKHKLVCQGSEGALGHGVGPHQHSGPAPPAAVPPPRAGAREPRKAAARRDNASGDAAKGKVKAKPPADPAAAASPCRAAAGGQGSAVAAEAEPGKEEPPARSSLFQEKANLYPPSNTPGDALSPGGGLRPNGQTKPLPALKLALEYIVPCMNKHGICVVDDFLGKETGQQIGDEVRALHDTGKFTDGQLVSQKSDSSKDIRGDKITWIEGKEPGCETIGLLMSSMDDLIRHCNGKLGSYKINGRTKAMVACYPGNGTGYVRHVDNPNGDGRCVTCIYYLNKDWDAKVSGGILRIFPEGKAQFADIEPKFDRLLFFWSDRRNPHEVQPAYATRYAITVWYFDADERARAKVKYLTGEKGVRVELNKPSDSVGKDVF

IC50 [1] | IC50 [2] | Compound | fold induction at 3 µM [3]
48 nM | 1300 nM | O=C(O)c1cnn(-c2nc(O)c3c(cnn3Cc3ccc(-c4ccccc4F)cc3C(F)(F)F)n2)c1 [Example 89] | 16
24 nM | 28 nM | O=C(O)c1cnn(-c2nc(O)c3c(cnn3Cc3ccc(-c4ccccc4)c(F)c3)n2)c1 [Example 91] | 8.6
65 nM | 300 nM | Cc1cc(Cn2ncc3nc(-n4cc(C(=O)O)cn4)nc(O)c32)ccc1-c1ccccc1F [Example 94] | 17
24 nM | 86 nM | COc1ccccc1-c1ccc(Cn2ncc3nc(-n4cc(C(=O)O)cn4)nc(O)c32)cc1F [Example 95] | 4.2
13 nM | 110 nM | COc1cc(Cn2ncc3nc(-n4cc(C(=O)O)cn4)nc(O)c32)ccc1-c1ccccc1F [Example 96] | 6.8
34 nM | 300 nM | COc1cc(Cn2ncc3nc(-n4cc(C(=O)O)cn4)nc(O)c32)ccc1-c1c(F)cccc1F [Example 97] | 5.2
20 nM | 190 nM | COc1cc(Cn2ncc3nc(-n4cc(C(=O)O)cn4)nc(O)c32)ccc1-c1ccccc1C [Example 98] | 8.6
37 nM | 200 nM | COc1ccccc1-c1ccc(Cn2ncc3nc(-n4cc(C(=O)O)cn4)nc(O)c32)cc1OC [Example 99] | 3.1
15 nM | 120 nM | O=C(O)c1cnn(-c2nc(O)c3c(cnn3Cc3ccc(-c4ccccc4F)c(F)c3F)n2)c1 [Example 101] | 12
19 nM | 150 nM | Cc1ccccc1-c1ccc(Cn2ncc3nc(-n4cc(C(=O)O)cn4)nc(O)c32)cc1F [Example 102] | 9.8
10 nM | 110 nM | O=C(O)c1cnn(-c2nc(O)c3c(cnn3Cc3ccc(-c4ccc(F)cc4F)nc3)n2)c1 [Example 104] | 5.4
12 nM | 110 nM | O=C(O)c1cnn(-c2nc(O)c3c(cnn3Cc3ccc(-c4cc(C(F)(F)F)ccc4F)nc3)n2)c1 [Example 105] | 9.5
7.4 nM | 28 nM | Cc1ncccc1-c1ccc(Cn2ncc3nc(-n4cc(C(=O)O)cn4)nc(O)c32)cc1F [Example 106] | 5.2
24 nM | 260 nM | C[C@H](c1ccc(-c2ccccc2)cc1)n1ncc2nc(-n3cc(C(=O)O)cn3)nc(O)c21 [Example 109] | 20
27 nM | 63 nM | C[C@@H](c1ccc(-c2ccccc2)cc1)n1ncc2nc(-n3cc(C(=O)O)cn3)nc(O)c21 [Example 110] | 56
25 nM | > 1000 nM | C[C@H](c1ccc(-c2ccccc2F)cc1)n1ncc2nc(-n3cc(C(=O)O)cn3)nc(O)c21 [Example 111] | 36
13 nM | 87 nM | C[C@@H](c1ccc(-c2ccccc2F)cc1)n1ncc2nc(-n3cc(C(=O)O)cn3)nc(O)c21 [Example 112] | 28
5.3 nM | 85 nM | COc1ccccc1-c1ccc([C@H](C)n2ncc3nc(-n4cc(C(=O)O)cn4)nc(O)c32)cc1 [Example 113] | 7.5
20 nM | 300 nM | O=C(O)c1cnn(-c2nc(O)c3c(cnn3CCc3cccc(Cl)c3)n2)c1 [Example 114] | 5.2
24 nM | 220 nM | O=C(O)c1cnn(-c2nc(O)c3c(cnn3CCc3ccc(Cl)c(Cl)c3)n2)c1 [Example 115] | 5.1
21 nM | 190 nM | O=C(O)c1cnn(-c2nc(O)c3c(cnn3CCc3ccc4ccccc4c3)n2)c1 [Example 116] | 4
37 nM | 520 nM | O=C(O)c1cnn(-c2nc(O)c3c(cnn3CCc3ccc4ccccc4n3)n2)c1 [Example 117] | 2
45 nM | 320 nM | CC(C)(Cn1ncc2nc(-n3cc(C(=O)O)cn3)nc(O)c21)c1ccc2ccccc2c1 [Example 118] | 17
54 nM | 890 nM | CC(C)(Cn1ncc2nc(-n3cc(C(=O)O)cn3)nc(O)c21)c1ccc(Cl)cc1 [Example 120] | 9.7
55 nM | 930 nM | O=C(O)c1cnn(-c2nc(O)c3c(cnn3CC3(c4ccccc4)CCCCC3)n2)c1 [Example 124] | 3.4
51 nM | 420 nM | Cc1c(CCn2ncc3nc(-n4cc(C(=O)O)cn4)nc(O)c32)ccc2ccccc12 [Example 126] | 5.2

IC50 [1] | IC50 [2] | Compound | fold induction at 3 µM [3]
6.2 nM | 62 nM | Cc1ccc2cc(CCn3ncc4nc(-n5cc(C(=O)O)cn5)nc(O)c43)ccc2c1 [Example 127] | 17
12 nM | 180 nM | CCc1ccc2cc(CCn3ncc4nc(-n5cc(C(=O)O)cn5)nc(O)c43)ccc2c1 [Example 128] | 168
21 nM | 160 nM | Cc1ccc2cc(CCn3ncc4nc(-n5cc(C(=O)O)cn5)nc(O)c43)ccc2c1C [Example 129] | 162
6 nM | 130 nM | O=C(O)c1cnn(-c2nc(O)c3c(cnn3CCc3ccc(-c4ccccc4)cc3)n2)c1 [Example 130] | 19
72 nM | 700 nM | O=C(O)c1cnn(-c2nc(O)c3c(cnn3CCCc3ccc4ccccc4c3)n2)c1 [Example 131] | 8.6
67 nM | 400 nM | CC(C)(CCn1ncc2nc(-n3cc(C(=O)O)cn3)nc(O)c21)c1ccc2ccccc2c1 [Example 132] | 2.6
110 nM | 370 nM | CC(C)(Cc1ccc2ccccc2c1)Cn1ncc2nc(-n3cc(C(=O)O)cn3)nc(O)c21 [Example 133] | 3.9
23 nM | 360 nM | O=C(O)c1cnn(-c2nc(O)c3c(cnn3CCC(c3ccccc3)c3ccccc3)n2)c1 [Example 134] | 25
74 nM | 380 nM | O=C(O)c1cnn(-c2nc(O)c3c(cnn3C3CCCCC3)n2)c1 [Example 135] | 6.1
31 nM | 320 nM | O=C(O)c1cnn(-c2nc(O)c3c(cnn3CC3CCCCC3)n2)c1 [Example 136] | 8.5
20 nM | 260 nM | O=C(O)c1cnn(-c2nc(O)c3c(cnn3C[C@H]3CC[C@H](C(F)(F)F)CC3)n2)c1 [Example 137] | 9.8
160 nM | 600 nM | O=C(O)c1cnn(-c2nc(O)c3c(cnn3C[C@H]3CC[C@@H](C(F)(F)F)CC3)n2)c1 [Example 138] | 2.9
30 nM | 520 nM | C[C@H]1CC[C@H](Cn2ncc3nc(-n4cc(C(=O)O)cn4)nc(O)c32)CC1 [Example 139] | 1.6
14 nM | 830 nM | CC[C@H]1CC[C@H](Cn2ncc3nc(-n4cc(C(=O)O)cn4)nc(O)c32)CC1 [Example 140] | 6.2
14 nM | 270 nM | CC(C)[C@H]1CC[C@H](Cn2ncc3nc(-n4cc(C(=O)O)cn4)nc(O)c32)CC1 [Example 141] | 1.2
25 nM | 360 nM | CC(C)(C)[C@H]1CC[C@H](Cn2ncc3nc(-n4cc(C(=O)O)cn4)nc(O)c32)CC1 [Example 142] | 15
15 nM | 1300 nM | C[C@@H](C1CCCCC1)n1ncc2nc(-n3cc(C(=O)O)cn3)nc(O)c21 [Example 144] | 4.3
15 nM | 300 nM | O=C(O)c1cnn(-c2nc(O)c3c(cnn3C[C@H]3CC[C@H](Oc4ccccc4F)CC3)n2)c1 [Example 146] | 2.6
5.3 nM | 330 nM | O=C(O)c1cnn(-c2nc(O)c3c(cnn3C[C@H]3CC[C@@H](Oc4ccccc4F)CC3)n2)c1 [Example 147] | 4
10 nM | 250 nM | O=C(O)c1cnn(-c2nc(O)c3c(cnn3C[C@H]3CC[C@H](Oc4cccc(F)c4)CC3)n2)c1 [Example 148] | 11
17 nM | 54 nM | O=C(O)c1cnn(-c2nc(O)c3c(cnn3C[C@H]3CC[C@H](Oc4ccc(F)cc4)CC3)n2)c1 [Example 149] | 22
39 nM | 410 nM | O=C(O)c1cnn(-c2nc(O)c3c(cnn3C[C@H]3CC[C@@H](Oc4ccc(F)cc4)CC3)n2)c1 [Example 150] | 9
13 nM | 220 nM | Cc1ccc(O[C@H]2CC[C@H](Cn3ncc4nc(-n5cc(C(=O)O)cn5)nc(O)c43)CC2)cc1 [Example 151] | 38
20 nM | 140 nM | O=C(O)c1cnn(-c2nc(O)c3c(cnn3C[C@H]3CC[C@H](Oc4ccc(C(F)(F)F)cc4)CC3)n2)c1 [Example 152] | 20
59 nM | 900 nM | O=C(O)c1cnn(-c2nc(O)c3c(cnn3CCC3CCOCC3)n2)c1 [Example 153] | 1.5
